Data as given in patent US7550487B2, “Pyrrolidine-3,4-dicarboxamide derivatives” (Hoffmann-La Roche Inc., priority 2004, dated 2009).

Target: T1, human factor Xa (Homo sapiens, UniProt P00742)
T1 construct: purchased Enzyme Research Laboratories
Assay: Factor Xa chromogenic peptide substrate assay (S-2222)
Assay type: biochemical
Description: Factor Xa activity was measured spectrophotometrically in microtiter plates in a final volume of 150 μl using the following conditions: Inhibition of human factor Xa (Enzyme Research Laboratories) was tested at an enzyme concentration of 3 nM using the chromogenic substrate S-2222 (Chromogenix AB, Mölndal, Sweden) at 200 nM. The reaction kinetics of the enzyme and the substrate were linear with both time and the enzyme concentration. The inhibitors were dissolved in DMSO and tested at various concentrations up to 100 μM. The inhibitors were diluted using HNPT buffer consisting of HEPES 100 mM, NaCl 140 mM, PEG 6000 0.1% and Tween 80 0.02%, pH 7.8. […] The velocity of the reaction was determined by the autoreader from the slope of the linear regression fit to 7 time points (1 minute). The initial velocity for each inhibitor concentration was determined by the slope of at least 4 time points in the linear phase by a linear regression fit (mOD/min^2). Apparent dissociation constants Ki were calculated according to Cheng and Prusoff [Cheng, Y. C.; Prusoff, W. H. Relationship between the inhibition constant (Ki) and the concentration of the inhibitor that causes 50 percent inhibition (IC50) of an enzyme reaction. Biochem. Pharmacol. 1973, 22, 3099-3108.] based on the IC50 and the respective Km, determined previously (Ki=IC50/(1+S/Km)). […]

T1 sequence (P00742 235-488 limits assumed): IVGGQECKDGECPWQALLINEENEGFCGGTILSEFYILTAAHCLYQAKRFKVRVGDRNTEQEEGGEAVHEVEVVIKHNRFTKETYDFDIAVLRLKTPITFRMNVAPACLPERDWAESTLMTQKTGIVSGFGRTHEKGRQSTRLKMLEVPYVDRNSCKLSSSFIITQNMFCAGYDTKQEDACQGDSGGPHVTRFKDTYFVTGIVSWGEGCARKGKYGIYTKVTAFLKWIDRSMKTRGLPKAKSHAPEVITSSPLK
T1 sequence (P00742 41-179 partner limits assumed): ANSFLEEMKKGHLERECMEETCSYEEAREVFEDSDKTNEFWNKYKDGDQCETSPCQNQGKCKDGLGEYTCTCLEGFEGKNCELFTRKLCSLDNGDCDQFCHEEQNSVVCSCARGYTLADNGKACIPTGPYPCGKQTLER

Q: With `CNC(=O)CN1C[C@H](C(=O)Nc2ccc(Cl)cc2)[C@@H](C(=O)Nc2ccc(-n3ccccc3=O)cc2F)C1` [Example 26, (3R,4R)-1-Methylcarbamoylmethyl-pyrrolidine-3,4-dicarboxylic acid 3-[(4-chloro-phenyl)-amide] 4-{[2-fluoro-4-(2-oxo-2H-pyridin-1-yl)-phenyl]-amide}] as the compound, how does the Ki read?
A: 22 nM
